Laboratory results as given in patent US20260183301A1, “TREATING DISEASES AND DISORDERS WITH IRAK4-MODIFYING COMPOUNDS” (Curis, Inc., priority 2022, published 2026).

Assay: Phase I dose escalation trial in NHL: safety and tolerance (adverse effects, DLT)
[1] = 200 mg BID, N = 5, [E] not defined

Method: Seven dosing cohorts included 50 and 100 mg QD, and 50, 100, 200, 300, or 400 mg BID of daily continuous oral monotherapy in 21-Day cycles. Objective included safety and tolerance (primary), pk/pd and early efficacy (secondary), and biomarker correlations (exploratory). 31 patients with resistant or refractory, advanced NHL have been enrolled.

## Cc1cc(-c2nc(C(=O)Nc3cc4oc(N5CCOCC5)nc4nc3N3CC[C@@H](O)C3)co2)ccn1 [Compound 1, emavusertib]
200 mg BID (n = 5)
  Back pain, All Grades: 20%
  Back pain, Grade 3 or 4: 0%
  Constipation, All Grades: 20%
  Constipation, Grade 3 or 4: 0%
  Cough, All Grades: 40%
  Cough, Grade 3 or 4: 0%
  Dehydration, All Grades: 20%
  Dehydration, Grade 3 or 4: 0%
  Diarrhea, All Grades: 20%
  Diarrhea, Grade 3 or 4: 0%
  Dizziness, All Grades: 0%
  Dizziness, Grade 3 or 4: 0%
  Dyspnoe, All Grades: 20%
  Dyspnoe, Grade 3 or 4: 0%
  Fatigue, All Grades: 40%
  Fatigue, Grade 3 or 4: 0%
  Headache, All Grades: 20%
  Headache, Grade 3 or 4: 0%
  Insomnia, All Grades: 20%
  Insomnia, Grade 3 or 4: 0%
  Muscle weakness, All Grades: 20%
  Muscle weakness, Grade 3 or 4: 20%
  Myalgia, All Grades: 40%
  Myalgia, Grade 3 or 4: 0%
  Nausea, All Grades: 20%
  Nausea, Grade 3 or 4: 0%
  Oedema, All Grades: 25%
  Oedema, Grade 3 or 4: 0%
  Peripheral sensory neuropathy, All Grades: 0%
  Peripheral sensory neuropathy, Grade 3 or 4: 0%
  Rhabdomyolysis, All Grades: 0%
  Rhabdomyolysis, Grade 3 or 4: 0%
  Upper respiratory infection, All Grades: 40%
  Upper respiratory infection, Grade 3 or 4: 20%
  Vomiting, All Grades: 20%
  Vomiting, Grade 3 or 4: 0%
200 mg BID, N = 5
  Anemia, All Grades: 1 (20.0) n (%)
  Anemia, Grade 3 or Higher: 0 n (%)
  Neutropenia, All Grades: 2 (40.0) n (%)
  Neutropenia, Grade 3 or Higher: 2 (40.0) n (%)
  Thrombocytopenia, All Grades: 0 n (%)
  Thrombocytopenia, Grade 3 or Higher: 0 n (%)
[1]
  Anemia, All Grades [E]: [1]
  Neutropenia, All Grades [E]: [3]
  Neutropenia, Grade 3 or Higher [E]: [2]
300 mg BID (n = 6)
  Back pain, All Grades: 0%
  Back pain, Grade 3 or 4: 0%
  Constipation, All Grades: 0%
  Constipation, Grade 3 or 4: 0%
  Cough, All Grades: 0%
  Cough, Grade 3 or 4: 0%
  Dehydration, All Grades: 0%
  Dehydration, Grade 3 or 4: 0%
  Diarrhea, All Grades: 40%
  Diarrhea, Grade 3 or 4: 0%
  Dizziness, All Grades: 0%
  Dizziness, Grade 3 or 4: 0%
  Dyspnoe, All Grades: 0%
  Dyspnoe, Grade 3 or 4: 0%
  Fatigue, All Grades: 0%
  Fatigue, Grade 3 or 4: 0%
  Headache, All Grades: 0%
  Headache, Grade 3 or 4: 0%
  Insomnia, All Grades: 0%
  Insomnia, Grade 3 or 4: 0%
  Muscle weakness, All Grades: 0%
  Muscle weakness, Grade 3 or 4: 0%
  Myalgia, All Grades: 0%
  Myalgia, Grade 3 or 4: 0%
  Nausea, All Grades: 17%
  Nausea, Grade 3 or 4: 0%
  Oedema, All Grades: 0%
  Oedema, Grade 3 or 4: 0%
  Peripheral sensory neuropathy, All Grades: 0%
  Peripheral sensory neuropathy, Grade 3 or 4: 0%
  Rhabdomyolysis, All Grades: 0%
  Rhabdomyolysis, Grade 3 or 4: 0%
